This is an account of results in patent publication US7879910B1, “Compositions and methods for promoting lush hair growth” (Jan Marini Skin Research, Inc., priority 2006, dated 2011).

The nature of data set [1]: Estimated margin of safety for topical use. Conditions: assuming absorbed daily dosage of 0.020 μg/kg/day; relative to no-observable-adverse-effect dose in long-term laboratory toxicity tests; conservatively estimated. An excerpt:
When absorbed in the body, is also metabolized into [+]fluprostenol. Based on extensive studies comparing the chemical structures, ocular and dermal absorption, metabolism, potency at the biological target site, toxicological and pharmacological of PGF2α analogs and derivatives, such as bimatoprost and travoprost, the inventor believes that the compound of Formula I, in particular the 5-Heptenamide, has much more balanced and favorable profiles of safety and efficacy, especially for long term chronic application to the skin. […] Assuming an absorbed daily dosage of 0.020 μg/kg/day, due to tightness of the outmost keratinized skin layer (the stratum corneum) which causes percutaneous permeability of most drugs 100-1000 times less than through the conjunctiva (Urtti & Salminen (1993) Survey of Opthalmology 37:435-456) and the lower hydrolysis rate of the 5-Heptenamide than travoprost, the margin of safety for 5-Heptenamide is conservatively estimated to be about 71,000, which means normal use of the composition delivers a dose that is less than about one 71,000th the no-observable-adverse-effect dose in long-term laboratory toxicity tests.
Traditionally, a margin of safety of 100 (10 for interspecies extrapolation, and 10 for […]) is considered adequate. […]

Data set [2] can be described thus: Metabolic conversion to the acid form [+]fluprostenol once absorbed in the body. It counts as in vivo, mammal. The settings on record: assessed by comparison of PGF2α analogs. An excerpt: In particular, the 5-Heptenamide administered to a mammal can be metabolized to produce an acid form which is a single isomer of fluprostenol, [+]fluprostenol having the structure of
Since the compound of Formula I is an amide derivative of a PGF2α analog, once absorbed, hydrolysis by enzymes in the body converts the amide back to the biologically active carboxylic acid. In particular, the 5-Heptenamide can be metabolized to [+]fluprostenol which then binds to the prostaglandin receptor with high affinity and has reduced side effects such as eye irritation and hyperemia (excess blood in vessels supplying the eye).
When absorbed in the body, is also metabolized into [+]fluprostenol. Based on extensive studies comparing the chemical structures, ocular and dermal absorption, metabolism, potency at the biological target site, toxicological and pharmacological of PGF2α analogs and derivatives, such as bimatoprost and travoprost, the inventor believes that the compound of Formula I, in particular the 5-Heptenamide, has much more balanced and favorable profiles of safety and efficacy, especially for long term chronic application to the skin. […]

The structures appear in SMILES notation.

In the case of `CCNC(=O)CCC/C=C\C[C@@H]1[C@H](/C=C/[C@@H](O)COc2cccc(C(F)(F)F)c2)[C@H](O)C[C@@H]1O` (relative stereo) [5-Heptenamide, 5-Heptenamide, 7-(3,5-dihydroxy-2-(3-hydroxy-4-(3-(trifluoromethyl)phenoxy)-1-butenyl)cyclopentyl)-, N-ethyl, (1R-(1alpha(Z), 2beta(1E,3R*), 3alpha, 5alpha)], the margin of safety result in data set [1] was “about 71,000”. Also, the “conversion to [+]fluprostenol (acid form)” value in data set [2] is “not as quantitatively converted to the acid form”.

Consider `CC(C)OC(=O)CCC/C=C\C[C@@H]1[C@@H](/C=C/[C@@H](O)COc2cccc(C(F)(F)F)c2)[C@H](O)C[C@@H]1O` [travoprost, Travoprost, reference compound], for which the “conversion to [+]fluprostenol (acid form)” value in data set [2] is reported as “essentially completely converted”.
